Test: Human HepG2 cell viability assay in 384 well format
Type: toxicity, cell-based
Parameters: dose 125 nL, time 70.5 hour; concentration not given beside the values
Details: HepG2 cells, read-out: Inhibition

Row | SMILES | cytotoxicity at 70.5 h [%]
1 | COc1ccc(C)cc1NC(=O)C1CSc2ncc(C)c(=O)n2C1 (stereo not given) | 8.57
2 | Cc1cnc2n(c1=O)CC(C(=O)Nc1ccon1)CS2 (stereo not given) | -13.7
3 | CCc1c(C)nc2n(c1=O)CC(C(=O)Nc1ccccc1C)CS2 (stereo not given) | 4.11
4 | CCc1c(C)nc2n(c1=O)CC(C(=O)Nc1ncccc1C)CS2 (stereo not given) | -8.04
5 | COc1cc(C(=O)NCCc2ccccc2OC)on1 | -1.09
6 | COc1cc(C(=O)NCCc2ccc(Cl)cc2)on1 | 0.265
7 | O=S(=O)(NCC(O)c1ccc2c(c1)CCO2)c1ccccc1F (stereo not given) | -13.3
8 | O=C(NCC1(O)CCc2ccccc2C1)c1cccs1 (stereo not given) | -14.5
9 | O=C(Cn1c(=O)oc2ccccc21)NCC1(O)CCc2ccccc2C1 (stereo not given) | -2.64
10 | O=C(NCc1cccs1)NCC1(O)CCc2ccccc2C1 (stereo not given) | -5.04
11 | COCCN(Cc1ccoc1)C(=O)c1ccccn1 | -3.55
12 | COCCN(Cc1ccoc1)C(=O)c1c(F)cccc1F | -3.64
13 | CCOc1ccc(S(=O)(=O)N(CCOC)Cc2ccoc2)cc1F | -11.6
14 | O=S(=O)(NCCC(O)c1ccoc1)c1ccc(Cl)s1 (stereo not given) | -0.192
15 | COC(=O)c1sccc1S(=O)(=O)NCCC(O)c1ccoc1 (stereo not given) | -0.756
16 | O=C(NCCC(O)c1ccoc1)Nc1cccs1 (stereo not given) | -9.28
17 | COC1(CNC(=O)c2ccsc2)CCSC1 (stereo not given) | -13
18 | COC1(CNC(=O)CCCc2ccccc2)CCSC1 (stereo not given) | -0.238
19 | COC1(CNC(=O)c2ccc3nsnc3c2)CCSC1 (stereo not given) | -18.3
20 | COC1(CNC(=O)c2ccc(Cl)c(Cl)c2)CCSC1 (stereo not given) | -15
21 | COC1(CNS(=O)(=O)c2ccccc2Cl)CCSC1 (stereo not given) | -7.26
22 | COC1(CNC(=O)NCc2ccccc2)CCSC1 (stereo not given) | -9.9

Row | SMILES | cytotoxicity at 70.5 h [%]
23 | COC1(CNC(=O)NCCOc2ccccc2)CCSC1 (stereo not given) | 1.02
24 | Cc1cccnc1NC(=O)c1ccc(-n2cncn2)nn1 | 1.65
25 | O=C(NCCn1nc(-n2cncn2)ccc1=O)c1ccccc1Br | -5.84
26 | Cc1nn(C)c(C)c1S(=O)(=O)NCC1CCN(c2ccccn2)CC1 | 0.358
27 | Cn1cnc(S(=O)(=O)NCC2(O)CCc3ccccc3C2)c1 (stereo not given) | -7.71
28 | Cn1cc(C(=O)Nc2ccc3c(c2)N(C(=O)c2ccco2)CC3)nn1 | 0.738
29 | CC(=O)N1CCc2ccc(NC(=O)c3cn(C)nn3)cc2C1 | -5.41
30 | Cn1cc(C(=O)Nc2ccc3c(c2)CN(C(=O)C2CC2)CC3)nn1 | -8.54
31 | Cn1cc(S(=O)(=O)NCCc2ccsc2)cn1 | -6.26
32 | COC(=O)N1CCC(CNS(=O)(=O)c2cnn(C)c2)CC1 | -0.269
33 | Cn1cc(C(=O)Nc2ccc(CC(=O)NCC(F)(F)F)cc2)nn1 | -6.55
34 | Cc1nc(N(C)C)nc(C)c1NC(=O)c1ccco1 | -3.93
35 | Cc1nc(N2CCOCC2)nc(C)c1NC(=O)COc1ccccc1 | -1.69
36 | COc1ccc(CC(=O)Nc2c(C)nc(N3CCOCC3)nc2C)cc1 | 1.49
37 | CCS(=O)(=O)NCc1nc(C)cc(N2CCCCC2)n1 | -7.45
38 | O=C(NCCNc1cc(N2CCCC2)cnn1)Nc1ccccc1F | -2.71
39 | COc1ncc(NC(=O)c2ccco2)c(OC)n1 | 7.73
40 | CCOc1ncc(NC(=O)c2ccco2)c(OCC)n1 | -0.599
41 | O=C(NCCn1ccc(-c2ccncc2)n1)C1CC1 | -12
42 | CCOCC(=O)NCCn1ccc(-c2ccccn2)n1 | -4.11
43 | O=S(=O)(NCCn1ccc(-c2ccccn2)n1)C1CC1 | -0.0974
44 | O=S(=O)(NCCn1ccc(-c2cccs2)n1)C1CC1 | -0.924

Row | SMILES | cytotoxicity at 70.5 h [%]
45 | Cc1nn(C)c(C)c1S(=O)(=O)NCCn1ccc(-c2cccs2)n1 | -0.512
46 | Cc1cccc(CS(=O)(=O)NCc2nn(C)c3c2CCCC3)c1 | -2.52
47 | O=C(CN1C(=O)CCC1=O)NCc1nn(C2CCCC2)c2c1CCCC2 | -2.19
48 | Cn1nc(CNC(=O)c2cccc(C(F)(F)F)c2)c2c1CCOC2 | -3.96
49 | Cc1ccnc(OC[C@]23COC[C@H]2CN(C(=O)Cc2ccsc2)C3)n1 | -7.56
50 | O=C(NCCc1ccncc1)[C@H]1C[C@@H]2CCN(c3nncs3)C[C@H]2O1 | -11.9
51 | Cc1cccc(CN2CC3(CCN(C(N)=O)CC3)OCC2=O)n1 | -10.4
52 | COCC(=O)N1CCC2(COCc3c(C)nc(N(C)C)nc32)C1 (stereo not given) | 15.4
53 | CC(C)COCC1CN(Cc2ccco2)Cc2ncn(C)c21 (stereo not given) | -6.93
54 | CC(C)COCC1CN(Cc2ccsc2)Cc2ncn(C)c21 (stereo not given) | -9.98
55 | CCc1cccc(NC(=O)N2CCn3cnc(COC)c3C2)c1 | -14.2
56 | Cc1ccc(N2CC[C@H]3OCC[C@@]3(C(=O)N(C)C)C2)nn1 | -8.34
57 | CCN1CCC2(COCc3c(C)nc(N(C)C)nc32)C1 (stereo not given) | -8.16
58 | CC(C)CN1C(=O)C2(CCN(Cc3ccc(F)cc3)C2)c2ccccc21 (stereo not given) | -0.325
59 | COCc1cncc2c1CCN(Cc1cccnc1)C2 | -3.24
60 | COCCO[C@H]1CCN(c2ccc(C)nn2)[C@H]1Cc1cnn(C)c1 | -3.27
61 | CC(=O)NCC(=O)N1CCOC2(CCCN(c3ccc(C)nn3)C2)C1 (stereo not given) | -11.9
62 | CN1CCN(C(=O)[C@H]2C[C@H]3[C@H](CCN3Cc3nccs3)O2)CC1 | -10.8
63 | CC(=O)N1CC(=O)N(c2cnn(C)c2)CC12CCN(Cc1ccco1)C2 (stereo not given) | -16.8
64 | Cc1nocc1C(=O)N1CCc2c(CN(C)C)nn(C)c2C1 | -13.6
65 | CC(C)(C)C(=O)N1CC[C@@H]2[C@H](CC1)N(S(C)(=O)=O)CCS2(=O)=O | -10.7
66 | Cc1cccc(NC(=O)N2CCC3(CC(=O)N(c4ccsc4)C3)C2)c1 (stereo not given) | -5.62

Row | SMILES | cytotoxicity at 70.5 h [%]
67 | CNC(=O)CN1CCOCC2(CCCN(Cc3ccoc3)C2)C1 (stereo not given) | -8.87
68 | CC(=O)N1CC(=O)N(c2ccsc2)CC12CCN(Cc1ccoc1)C2 (stereo not given) | -11.1
69 | CN1CCN(C(=O)[C@H]2CC[C@@H]3[C@@H](CCN3Cc3nccs3)O2)CC1 | -13.2
70 | O=C(NC1CCCC1)C1Cc2nc(-c3ccsc3)sc2N1CC1CC1 (stereo not given) | 9.52
71 | O=C(Cn1ccc2ccccc21)NCc1ccc(C(=O)O)cc1 | -10.6
72 | Cc1cccc(NC(=O)N2CCCn3cnc(CN(C)C(C)C)c3C2)c1 | 17.2
73 | Cn1ccnc1CN1CCC(F)(F)C2(CCN(c3cnccn3)C2)C1 (stereo not given) | 19.3
74 | O=S(=O)(C1CC1)N1CCO[C@H]2[C@@H](Oc3ncccc3F)CC[C@@H]21 | -8.02
75 | CC(C)CN1C(=O)C2(CCN(Cc3ccsc3)C2)c2ccccc21 (stereo not given) | -13
76 | CNC(=O)[C@@H]1CCO[C@@H]2CCN(CCc3ccccc3)C[C@H]21 | -3.11
77 | CCCS(=O)(=O)N1CCO[C@H]2[C@@H](Oc3cccnc3)CC[C@@H]21 | -1.96
78 | CN(C)c1ncc(-c2cc(C(=O)NCCO)n(CC3CC3)c2)cn1 | -6
79 | CCCS(=O)(=O)N1C[C@@H](Oc2ncccc2F)[C@H]2OCCC[C@H]21 | -10.6
80 | O=C(NCC1CC1)[C@@H]1CCO[C@@H]2CCN(CCc3ccccc3)C[C@H]21 | -5.09
81 | CN(C)C(=O)[C@@H]1C[C@@H]2[C@@H](CCN2Cc2nccs2)O1 | -5.24
82 | CC1=N[C@@]2(CC[C@@H]3CN(Cc4ccc(C)cc4)C[C@@H]32)C(=O)N1CC1CC1 | -12.4
83 | O=C(c1cnccn1)N1CCOC2(CCCN(c3ncccc3F)C2)C1 (stereo not given) | -16.1
84 | O=C(CC1CCCC1)N1C[C@H](Oc2cccnc2)[C@H]2OCCC[C@H]21 | -16.9
85 | O=C([C@H]1CCCO1)N1CCOC2(CCCN(c3ncccc3F)C2)C1 (stereo not given in full) | -15.7
86 | CO[C@H]1CN(C(=O)c2cccnc2)[C@@H]2CCCO[C@H]12 | -11.9
87 | COCC1Cn2nnc(-c3cnn(C)c3)c2CN1Cc1cccs1 (stereo not given) | -12.1
88 | CO[C@H]1CC[C@H]2[C@H]1OCCN2Cc1ccc(F)cc1 | 9.89

Row | SMILES | cytotoxicity at 70.5 h [%]
89 | O=C(Nc1cccnc1)C1Cc2nc(-c3ccsc3)sc2N1CC1CC1 (stereo not given) | 15.3
90 | Cc1ccccc1C(=O)N1C[C@@H]2OCCN(c3ncccn3)[C@@H]2C1 | 17.4
91 | CC(C)C(=O)N1CCC[C@]2(C(=O)N(C)C)CN(c3ccccn3)C[C@@H]2C1 | 11.4
92 | COc1cc(N2CC[C@@H]3O[C@H](C(=O)N(C)C)C[C@@H]32)ncn1 | -17.2
93 | CCC(=O)N1CCC[C@]2(C(=O)N(C)C)CN(c3ccccn3)C[C@@H]2C1 | -9.46
94 | Fc1ccc(CN2CCC3(CC2)CC(c2cccnc2)CO3)cc1 (stereo not given) | -0.689
95 | CN1C(Cn2cccn2)C[C@@H]2CN(C(=O)c3cccc(C#N)c3)CC[C@@H]21 (stereo not given in full) | -7.79
96 | CC(C)N(C)Cc1cnc2n1CCN(Cc1ccco1)C2 | -14
97 | CNC(=O)CN1CCOCC2(CCCN(CCc3ccccc3)C2)C1 (stereo not given) | -10.9
98 | CCN1CCn2c(C)cnc2C12CCN(C(=O)C(C)C)CC2 | -15.2
99 | CN(C)C(=O)COCc1cncc2c1CCN(Cc1ccccn1)C2 | -7.2
100 | CNC(=O)CN1CCOCC2(CCCN(Cc3ccc(F)cc3)C2)C1 (stereo not given) | -9.75
101 | Cc1nc(CN2CCC3(CCN(Cc4cnn(C)c4)CC3)C2=O)cs1 | 10.4
102 | CCOCC1c2c(cnn2CC2CC2)CCN1Cc1nccs1 (stereo not given) | -9.55
103 | CN(Cc1ccco1)C1COC2(CCN(Cc3nccs3)CC2)C1 (stereo not given) | -21.8
104 | c1cncc(OCC2CN(Cc3nccs3)Cc3nccn3C2)c1 (stereo not given) | -15.5
105 | Cc1nc(CN2CCC3(CCCN(Cc4ccoc4)C3)C2=O)cs1 (stereo not given) | 11.4
106 | O=C(c1cccnc1)N1Cc2nccn2CC(COc2cccnc2)C1 (stereo not given) | -15.2
107 | FC1(F)CCN(Cc2cccnc2)CC12CCN(c1cnccn1)C2 (stereo not given) | -12.8
108 | FC1(F)CCN(Cc2ccncc2)CC12CCN(c1cnccn1)C2 (stereo not given) | -8.66
109 | c1ccc(CN2CCc3c(COCC4CC4)cncc3C2)nc1 | -11.4
110 | CN(C)CCOCc1cncc2c1CCN(Cc1ccccn1)C2 | -10.9

From ChEMBL document CHEMBL3507680, “University of Dundee, Gates Library screen for HepG2 cell viability”
